Test results taken from article PMC10793102 (Acta Pharmaceutica Sinica. B, 2023).
Read-outs that look alike come from different tables or passages of the source.

Key:
[1] = system: FADD−/− Jurkat; assay: Cell viability assay, protection from necroptosis in FADD−/− Jurkat cells; type: cell-based; conditions: Homo sapiens, 16 h
[2] = system: L929; assay: Cell viability assay, protection from necroptosis in L929 cells; type: cell-based, mouse; conditions: Mus musculus, L929, 16 h
[3] = Metabolic stability in mouse liver microsomes; type: in vitro ADME
[4] = Metabolic stability in human liver microsomes; type: in vitro ADME
[5] = molecular target: hRIPK3 (Homo sapiens, UniProt Q9Y572); assay: In vitro RIPK3 kinase activity assay; type: biochemical
hRIPK3, sequence (Q9Y572 whole entry): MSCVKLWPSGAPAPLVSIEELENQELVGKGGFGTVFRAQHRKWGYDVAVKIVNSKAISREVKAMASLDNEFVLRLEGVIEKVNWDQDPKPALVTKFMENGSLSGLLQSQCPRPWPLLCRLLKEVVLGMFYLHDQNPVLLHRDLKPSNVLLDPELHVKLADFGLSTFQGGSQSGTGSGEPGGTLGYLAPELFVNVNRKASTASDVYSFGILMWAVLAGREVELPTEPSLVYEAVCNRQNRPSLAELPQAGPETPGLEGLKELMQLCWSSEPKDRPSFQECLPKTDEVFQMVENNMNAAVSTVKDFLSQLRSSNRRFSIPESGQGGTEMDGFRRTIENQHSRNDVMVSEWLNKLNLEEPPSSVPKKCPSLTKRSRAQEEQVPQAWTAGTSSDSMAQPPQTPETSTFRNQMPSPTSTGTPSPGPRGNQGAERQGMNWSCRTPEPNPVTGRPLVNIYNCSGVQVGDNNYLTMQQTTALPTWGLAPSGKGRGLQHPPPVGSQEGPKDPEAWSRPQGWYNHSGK

[6] = molecular target: T1, hRIPK1 (Homo sapiens, UniProt Q13546); assay: In vitro RIPK1 kinase activity assay; type: biochemical; conditions: Enzymatic IC50s RIPK1, hRIPK1 enzymatic assay
T1 sequence (Q13546 1-671): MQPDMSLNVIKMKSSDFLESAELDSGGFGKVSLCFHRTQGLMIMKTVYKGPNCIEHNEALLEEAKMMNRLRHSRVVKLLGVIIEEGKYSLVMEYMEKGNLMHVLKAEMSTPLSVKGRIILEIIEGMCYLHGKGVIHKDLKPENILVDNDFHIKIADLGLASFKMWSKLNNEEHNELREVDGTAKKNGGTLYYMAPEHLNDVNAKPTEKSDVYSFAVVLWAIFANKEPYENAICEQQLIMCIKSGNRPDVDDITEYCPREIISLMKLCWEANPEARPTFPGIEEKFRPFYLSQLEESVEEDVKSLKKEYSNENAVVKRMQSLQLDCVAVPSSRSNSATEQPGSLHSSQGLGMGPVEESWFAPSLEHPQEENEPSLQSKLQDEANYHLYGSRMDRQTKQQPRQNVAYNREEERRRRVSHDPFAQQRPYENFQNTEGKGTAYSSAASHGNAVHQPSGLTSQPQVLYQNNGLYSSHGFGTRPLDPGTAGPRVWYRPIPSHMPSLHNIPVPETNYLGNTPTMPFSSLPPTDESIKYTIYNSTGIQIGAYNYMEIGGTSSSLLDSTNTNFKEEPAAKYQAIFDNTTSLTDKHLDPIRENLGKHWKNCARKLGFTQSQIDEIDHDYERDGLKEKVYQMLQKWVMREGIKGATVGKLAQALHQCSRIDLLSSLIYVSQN

[7] = PK study in mice; type: in vivo; conditions: male, ICR, mouse, plasma
[8] = molecular target: T2, CYP2C8 (Homo sapiens, UniProt P10632); assay: CYP450 inhibition; type: in vitro ADME
T2 sequence (P10632 1-490): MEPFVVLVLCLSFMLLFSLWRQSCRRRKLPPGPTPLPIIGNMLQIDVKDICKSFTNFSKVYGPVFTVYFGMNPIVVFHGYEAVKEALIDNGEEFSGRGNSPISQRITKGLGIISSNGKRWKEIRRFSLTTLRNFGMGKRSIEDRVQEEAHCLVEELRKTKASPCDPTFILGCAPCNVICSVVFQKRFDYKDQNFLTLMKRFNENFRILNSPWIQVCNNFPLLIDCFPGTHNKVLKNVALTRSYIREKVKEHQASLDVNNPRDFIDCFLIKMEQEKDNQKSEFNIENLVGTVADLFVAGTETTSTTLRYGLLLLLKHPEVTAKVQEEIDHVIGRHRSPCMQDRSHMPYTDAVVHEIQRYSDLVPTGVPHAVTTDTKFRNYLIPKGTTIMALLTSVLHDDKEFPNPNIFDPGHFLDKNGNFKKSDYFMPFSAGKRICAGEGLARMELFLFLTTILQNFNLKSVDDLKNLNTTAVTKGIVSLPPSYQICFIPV

[9] = molecular target: TEL-TRKA fusion (Homo sapiens, UniProt P04629+P41212); assay: Anti-proliferation in engineered Ba/F3 cells dependent on TEL-TRKA; type: cell-based; conditions: read-out: IC50 anti-proliferative effect, TEL-TRKA Ba/F3; 72 h
TEL-TRKA fusion, sequence (P04629 510-781 limits assumed, one chain of several): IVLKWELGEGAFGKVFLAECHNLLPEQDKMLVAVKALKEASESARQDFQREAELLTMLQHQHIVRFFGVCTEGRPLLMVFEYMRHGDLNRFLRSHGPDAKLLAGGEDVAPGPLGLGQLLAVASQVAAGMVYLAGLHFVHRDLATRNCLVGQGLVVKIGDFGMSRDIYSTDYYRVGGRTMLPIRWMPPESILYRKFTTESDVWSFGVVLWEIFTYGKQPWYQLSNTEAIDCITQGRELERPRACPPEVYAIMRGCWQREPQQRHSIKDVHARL

[10] = Cytotoxicity at high concentrations in cell viability assays; type: cell-based
[11] = system: phosphorylation of RIPK1, RIPK3 and MLKL; assay: Western blotting of necroptotic signaling in L929 cells; type: cell-based, mouse
[12] = read-out: EC50 FADD−/− Jurkat T + S
[13] = read-out: EC50 FADD−/− Jurkat TNFα

Row | Compound | IC50 [5] [nM] | IC50 [6] [nM] | AUC(0-inf) ([7]; iv, 1 mg/kg) [ng·h/mL] | AUC(0-t) ([7]; iv, 1 mg/kg) [ng·h/mL] | MRT inf ([7]; iv, 1 mg/kg) [min] | Vd ([7]; iv, 1 mg/kg) [L/kg] | clearance ([7]; iv, 1 mg/kg) [mL/min/kg] | half-life ([7]; iv, 1 mg/kg) [min] | AUC(0-inf) ([7]; po, 10 mg/kg) [ng·h/mL] | AUC(0-t) ([7]; po, 10 mg/kg) [ng·h/mL] | Cmax ([7]; po, 10 mg/kg) [ng/mL] | MRT inf ([7]; po, 10 mg/kg) [min] | Tmax ([7]; po, 10 mg/kg) [min] | bioavailability ([7]; po, 10 mg/kg) [%] | half-life ([7]; po, 10 mg/kg) [min] | EC50 [1, 12] [nM] | EC50 [1, 13] [nM] | EC50 ([2]; read-out: EC50 L929 T + S) [nM] | EC50 ([2]; read-out: EC50 L929 TNFα) [nM] | other results
1 | CNC(=O)c1ccc2c(c1)ncn2-c1ccc(CNC(=O)c2cnn(C)c2Cc2ccccc2)cc1 [compound 27] |  |  |  |  |  |  |  |  |  |  |  |  |  |  |  | 5.2 | 0.5 | 77 | 20 | half-life [3]: ~40 min; half-life [4]: ~40 min
2 | C[C@H](NC(=O)c1cnn(C)c1Cc1ccccc1)c1ccc(-n2cnc3c(N)ncnc32)cc1 [compound 54, (S)-N-(1-(4-(6-Amino-9H-purin-9-yl)phenyl)ethyl)-5-benzyl-1-methyl-1H-pyrazole-4-carboxamide] | > 1000 | ~6 | 672 | 659 | 119 | 2.98 | 25 | 26.4 | 2480 | 2440 | 1200 | 183 | 30 | 37 | 54 | 0.3 | 0.08 | 0.6 | 0.4 | 
3 | C[C@@H](c1ccc(-n2cnc3c(N)ncnc32)cc1)N1Cc2nn(C)c(Cc3ccccc3)c2C1=O [compound 63, (S)-5-(1-(4-(6-Amino-9H-purin-9-yl)phenyl)ethyl)-3-benzyl-2-methyl-5,6-dihydropyrrolo[3,4-c]pyrazol-4(2H)-one] |  |  | 644 | 643 | 58.2 | 1.6 | 26.7 | 36.6 | 1730 | 1700 | 714 | 165 | 40.2 | 26.4 | 63 | 0.4 | 0.03 | 1.6 | 0.3 | IC50 [9]: > 1000 nM
4 | C[C@H](NC(=O)c1c(Cl)nn(C)c1Cc1ccccc1)c1ccc(-n2cnc3c(N)ncnc32)cc1 [compound 57] |  |  |  |  |  |  |  |  |  |  |  |  |  |  |  | 0.3 | 0.09 | 0.4 | 0.3 | cytotoxicity at high concentrations [10]: increased cytotoxicity at higher concentrations
5 | CNC(=O)c1ccc2c(c1)ncn2-c1ccc(CNC(=O)c2cc(Cc3ccccc3)n(C)n2)cc1 [compound 20, 1-(4-((5-Benzyl-1-methyl-1H-pyrazole-3-carboxamido)methyl)phenyl)-N-methyl-1H-benzo[d]imidazole-5-carboxamide] |  |  |  |  |  |  |  |  |  |  |  |  |  |  |  | 44 | 5.1 |  | 312 | half-life [3]: ~40 min; half-life [4]: ~40 min
6 | C[C@H](NC(=O)c1nnn(C)c1Cc1ccccc1)c1ccc(-n2cnc3c(N)ncnc32)cc1 [compound 58] |  |  |  |  |  |  |  |  |  |  |  |  |  |  |  | < 0.01 | < 0.01 | < 0.01 | < 0.01 | cytotoxicity at high concentrations [10]: increased cytotoxicity at higher concentrations
7 | CN1C(=O)[C@@H](NC(=O)c2n[nH]c(Cc3ccccc3)n2)COc2ccccc21 [compound 2, GSK2982772, reference compound] |  |  |  |  |  |  |  |  |  |  |  |  |  |  |  | 3.9 | 0.5 | 8280 | 1200 | phosphorylation cascade (Western blot), L929 [11]: inactive even at 1 μmol/L

Second part, led by results:

Row | IC50 [5] [nM] | IC50 [6] [nM] | AUC(0-inf) ([7]; iv, 1 mg/kg) [ng·h/mL] | AUC(0-t) ([7]; iv, 1 mg/kg) [ng·h/mL] | MRT inf ([7]; iv, 1 mg/kg) [min] | Vd ([7]; iv, 1 mg/kg) [L/kg] | clearance ([7]; iv, 1 mg/kg) [mL/min/kg] | half-life ([7]; iv, 1 mg/kg) [min] | AUC(0-inf) ([7]; po, 10 mg/kg) [ng·h/mL] | AUC(0-t) ([7]; po, 10 mg/kg) [ng·h/mL] | Cmax ([7]; po, 10 mg/kg) [ng/mL] | MRT inf ([7]; po, 10 mg/kg) [min] | Tmax ([7]; po, 10 mg/kg) [min] | bioavailability ([7]; po, 10 mg/kg) [%] | half-life ([7]; po, 10 mg/kg) [min] | Compound | EC50 [1, 12] [nM] | EC50 [1, 13] [nM] | EC50 ([2]; read-out: EC50 L929 T + S) [nM] | EC50 ([2]; read-out: EC50 L929 TNFα) [nM] | other results
8 | > 1000 | ~6 | 1420 | 1240 | 630 | 6.98 | 11.7 | 61.8 | 4330 | 4110 | 1220 | 345 | 40.2 | 33.3 | 99 | Cn1nnc(C(=O)NCc2ccc(-n3cnc4c(N)ncnc43)cc2)c1Cc1ccccc1 [compound 49, N-(4-(6-Amino-9H-purin-9-yl)benzyl)-5-benzyl-1-methyl-1H-1,2,3-triazole-4-carboxamide] | 0.5 | 0.06 | 0.06 | 0.03 | inhibition of CYP2C8 (in words) [8]: weakly inhibited CYP2C8
9 | > 1000 | 9.5 | 882 | 862 | 125 | 2.35 | 18.3 | 48.6 | 2210 | 2190 | 1340 | 153 | 19.8 | 25.4 | 80.4 | Cn1ncc(C(=O)NCc2ccc(-n3cnc4c(N)ncnc43)cc2)c1Cc1ccccc1 [compound 39, N-(4-(6-Amino-9H-purin-9-yl)benzyl)-5-benzyl-1-methyl-1H-pyrazole-4-carboxamide] | 1 | 0.04 | 3.6 | 0.9 | inhibition of CYP2C8 (in words) [8]: weakly inhibited CYP2C8
